From patent US10981894B2, “Melanocortin subtype-2 receptor (MC2R) antagonists and uses thereof” (Crinetics Pharmaceuticals, Inc., priority 2018, dated 2021) come the findings set out here.

This assay addresses hMC2 receptor (Homo sapiens, UniProt Q01718). Description: hMC2 membrane binding assay ([125I]ACTH (1-39) Tyr23, SPA). The settings on record: crude hMC2R membranes from CRE-bla-CHO-K1 cells expressing hMC2 receptor and hMRAP; [125I]ACTH (1-39) Tyr23 0.2 nM; 1.5 hours at room temperature; read-out: MC2R binding potency. More on the design: scale not given here. The method in brief:
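Ki comes from non-linear regression of SPA scintillation counts. Displacement of 0.2 nM [125I]ACTH(1-39) Tyr23 by compound dose series (usually 0–10,000 nM final) ran 1.5 h at room temperature. Membranes came from CHO-K1 CRE-bla cells stably expressing hMC2R plus hMRAP, bead-coupled in pH 7.4 buffer with 0.2% BSA.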

hMC2 receptor, sequence (Q01718 whole entry): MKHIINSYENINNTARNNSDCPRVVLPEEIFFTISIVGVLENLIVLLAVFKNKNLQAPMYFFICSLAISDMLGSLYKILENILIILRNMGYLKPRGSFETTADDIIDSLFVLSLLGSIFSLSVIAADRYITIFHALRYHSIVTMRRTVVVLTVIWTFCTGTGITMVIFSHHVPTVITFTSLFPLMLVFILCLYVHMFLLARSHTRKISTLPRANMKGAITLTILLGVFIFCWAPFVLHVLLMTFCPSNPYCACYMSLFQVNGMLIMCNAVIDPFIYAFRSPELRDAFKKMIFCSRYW
hMC2 receptor, sequence (Q8TCY5 whole entry partner): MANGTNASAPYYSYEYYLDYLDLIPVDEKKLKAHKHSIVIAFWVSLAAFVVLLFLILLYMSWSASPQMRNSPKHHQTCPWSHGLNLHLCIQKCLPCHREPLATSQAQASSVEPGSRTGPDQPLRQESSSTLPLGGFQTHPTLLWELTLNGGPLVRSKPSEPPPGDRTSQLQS

Take `CCOc1ncccc1-c1ccc(N2CCN(C(=O)c3ccc(Cl)cc3Cl)C[C@H]2CC)c(C(=O)N[C@@H]2CCNC2)n1` [Compound 1-267, 5-[(2R)-4-(2,4-dichlorobenzoyl)-2-ethylpiperazin-1-yl]-2′-ethoxy-N-[(3R)-pyrrolidin-3-yl]-[2,3′-bipyridine]-6-carboxamide]: the Ki was < 10 nM.

Consider `CCOc1ncccc1-c1ccc(N2CCN(C(=O)c3ccc(Cl)cc3C(F)(F)F)C[C@H]2CC)c(C(=O)NCCc2ncc[nH]2)c1F` [Compound 1-116, 6-[(2R)-4-[4-chloro-2-(trifluoromethyl)benzoyl]-2-ethylpiperazin-1-yl]-3-(2-ethoxypyridin-3-yl)-2-fluoro-N-[2-(1H-imidazol-2-yl)ethyl]benzamide], for which the Ki is < 10 nM.

Consider `CCOc1ccccc1-c1ccc(N2CCN(C(=O)C3(C(F)(F)F)CCCC3)C[C@H]2CC)c(C(=O)N[C@H]2CCN(C)C2)n1` [Compound 1-401, 6-(2-ethoxyphenyl)-3-[(2R)-2-ethyl-4-[1-(trifluoromethyl)cyclopentanecarbonyl]piperazin-1-yl]-N-[(3S)-1-methylpyrrolidin-3-yl]pyridine-2-carboxamide], for which the Ki was < 10 nM.

Consider `CCOc1ncccc1-c1ccc(N2CCN(C(=O)N3CCc4cc(F)cc(C#N)c43)C[C@H]2CC)c(C(=O)N[C@H]2CCN(C)C2)n1` [Compound 1-423, 5-[(2R)-4-(7-cyano-5-fluoro-2,3-dihydro-1H-indole-1-carbonyl)-2-ethylpiperazin-1-yl]-2′-ethoxy-N-[(3S)-1-methylpyrrolidin-3-yl]-[2,3′-bipyridine]-6-carboxamide], for which the Ki was < 10 nM.

`CCOc1ccccc1-c1ccc(N2CCN(C(=O)N3CCCC[C@H]3C(F)(F)F)C[C@H]2CC)c(C(=O)N[C@@H]2CCN(C)C2)n1` [Compound 1-433, 6-(2-ethoxyphenyl)-3-[(2R)-2-ethyl-4-[(2S)-2-(trifluoromethyl)piperidine-1-carbonyl]piperazin-1-yl]-N-[(3R)-1-methylpyrrolidin-3-yl]pyridine-2-carboxamide]: the Ki is < 10 nM.

Regarding `CCCOc1ccccc1-c1ccc(N2CCN(C(=O)c3ccc(C(F)(F)F)cc3Cl)C[C@H]2CC)c(C(=O)NCCN)c1` [Compound 1-11, N-(2-aminoethyl)-4-[(2R)-4-[2-chloro-4-(trifluoromethyl)benzoyl]-2-ethylpiperazin-1-yl]-2′-propoxy-[1,1′-biphenyl]-3-carboxamide], the Ki is 10 to 100 nM.

On to `CCOc1ccccc1-c1ccc(N2CCN(C(=O)c3ccc(F)cc3C(F)F)C[C@H]2CC)c(C(=O)N[C@@H]2CCN(C)C2)n1` [Compound 1-293, 3-[(2R)-4-[2-(difluoromethyl)-4-fluorobenzoyl]-2-ethylpiperazin-1-yl]-6-(2-ethoxyphenyl)-N-[(3R)-1-methylpyrrolidin-3-yl]pyridine-2-carboxamide], for which the Ki was < 10 nM.

In the case of `CCOc1ncccc1-c1ccc(N2CCN(C(=O)c3ccc(NC)nc3C(F)(F)F)C[C@H]2CC)c(C(=O)NCCNC)c1F` [Compound 1-163, 3-(2-ethoxypyridin-3-yl)-6-[(2R)-2-ethyl-4-[6-(methylamino)-2-(trifluoromethyl)pyridine-3-carbonyl]piperazin-1-yl]-2-fluoro-N-[2-(methylamino)ethyl]benzamide], the Ki was < 10 nM.

For the molecule `CCOc1ncccc1-c1ccc(N2CCN(C(=O)c3ccc(Cl)cc3C(F)(F)F)C[C@H]2CC)c(C(=O)NCC2CNC2)n1` [Compound 1-222, N-[(azetidin-3-yl)methyl]-5-[(2R)-4-[4-chloro-2-(trifluoromethyl)benzoyl]-2-ethylpiperazin-1-yl]-2′-ethoxy-[2,3′-bipyridine]-6-carboxamide], the Ki is < 10 nM.

On to `CCOc1ccc(C(=O)N2CCN(c3ccc(-c4cccnc4OCC)nc3C(=O)NCC3CN(C)C3)[C@H](CC)C2)c(C(F)(F)F)n1` [Compound 1-249, 2′-ethoxy-5-[(2R)-4-[6-ethoxy-2-(trifluoromethyl)pyridine-3-carbonyl]-2-ethylpiperazin-1-yl]-N-[(1-methylazetidin-3-yl)methyl]-[2,3′-bipyridine]-6-carboxamide], for which the Ki is < 10 nM.

On to `CCOc1ncccc1-c1ccc(N2CCN(C(=O)O[C@@H](C(C)(C)C)C(F)(F)F)C[C@H]2CC)c(C(=O)N[C@@H]2CCN(C)C2)n1` (single isomer, unassigned) [Compound 1-407], for which the Ki is < 10 nM.

Consider `CCOc1ncccc1-c1ccc(N2CCN(C(=O)c3ccc(Cl)cc3C(F)(F)F)C[C@H]2CC)c(CN)n1` [Compound 2-13, 1-{5-[(2R)-4-[4-chloro-2-(trifluoromethyl)benzoyl]-2-ethylpiperazin-1-yl]-2′-ethoxy-[2,3′-bipyridin]-6-yl}methanamine], for which the Ki was < 10 nM.

Turning to `CCOc1ccccc1-c1ccc(N2CCN(C(=O)n3ccc4cc(F)cc(Cl)c43)C[C@H]2CC)c(C(=O)N[C@@H]2CCN(C)C2)n1` [Compound 1-430, 3-[(2R)-4-(7-chloro-5-fluoro-1H-indole-1-carbonyl)-2-ethylpiperazin-1-yl]-6-(2-ethoxyphenyl)-N-[(3R)-1-methylpyrrolidin-3-yl]pyridine-2-carboxamide], the Ki is < 10 nM.

Consider `CCOc1ncccc1-c1ccc(N2CCN(C(=O)c3ccc(OC)cc3C(F)(F)F)C[C@H]2CC)c(C(=O)NC2CN(C)C2)c1F` [Compound 1-203, 3-(2-ethoxypyridin-3-yl)-6-[(2R)-2-ethyl-4-[4-methoxy-2-(trifluoromethyl)benzoyl]piperazin-1-yl]-2-fluoro-N-(1-methylazetidin-3-yl)benzamide], for which the Ki is < 10 nM.

Turning to `CCOc1ncccc1-c1ccc(N2CCN(C(=O)c3ccc(Cl)cc3C(F)(F)F)C[C@H]2CC)c(C(=O)NCCC2=NCCN2)c1F` [Compound 1-219, 6-[(2R)-4-[4-chloro-2-(trifluoromethyl)benzoyl]-2-ethylpiperazin-1-yl]-N-[2-(4,5-dihydro-1H-imidazol-2-yl)ethyl]-3-(2-ethoxypyridin-3-yl)-2-fluorobenzamide], the Ki was < 10 nM.

Consider `CCOc1ncccc1-c1ccc(N2CCN(C(=O)c3ccc(OC)cc3C(F)(F)F)C[C@H]2CC)c(C(=O)N[C@@H]2CCNC2)c1` [Compound 1-143, 5-(2-ethoxypyridin-3-yl)-2-[(2R)-2-ethyl-4-[4-methoxy-2-(trifluoromethyl)benzoyl]piperazin-1-yl]-N-[(3R)-pyrrolidin-3-yl]benzamide], for which the Ki is < 10 nM.

`CCOc1ncccc1-c1ccc(N2CCN(C(=O)c3ccc(Cl)cc3C(F)(F)F)C[C@H]2CC)c(C(=O)NC2CN(C)C2)c1` [Compound 1-216, 2-[(2R)-4-[4-chloro-2-(trifluoromethyl)benzoyl]-2-ethylpiperazin-1-yl]-5-(2-ethoxypyridin-3-yl)-N-(1-methylazetidin-3-yl)benzamide]: the Ki is < 10 nM.

Take `CCOc1ccccc1-c1ccc(N2CCN(C(=O)c3ccc(Cl)cc3C(F)(F)F)C[C@H]2CC)c(C(=O)NC2CN(C)C2)n1` [Compound 1-221, 3-[(2R)-4-[4-chloro-2-(trifluoromethyl)benzoyl]-2-ethylpiperazin-1-yl]-6-(2-ethoxyphenyl)-N-(1-methylazetidin-3-yl)pyridine-2-carboxamide]: the Ki was < 10 nM.

Turning to `CCOc1ncccc1-c1ccc(N2CCN(C(=O)O[C@@H](C(C)(C)C)C(F)(F)F)C[C@H]2CC)c(C(=O)N[C@@H]2CN3CCC2CC3)n1` [Compound 1-403, (2S)-1,1,1-trifluoro-3,3-dimethylbutan-2-yl (3R)-4-(6-{[(3S)-1-azabicyclo[2.2.2]octan-3-yl]carbamoyl}-2′-ethoxy-[2,3′-bipyridin]-5-yl)-3-ethylpiperazine-1-carboxylate; or (2R)-1,1,1-trifluoro-3,3-dimethylbutan-2-yl (3R)-4-(6-{[(3S)-1-azabicyclo[2.2.2]octan-3-yl]carbamoyl}-2′-ethoxy-[2,3′-bipyridin]-5-yl)-3-ethylpiperazine-1-carboxylate], the Ki was < 10 nM.

`CCOc1ncccc1-c1ccc(N2CCN(C(=O)C34CCC(CC3(F)F)C4(C)C)C[C@H]2CC)c(C(=O)N[C@@H]2CCNC2)n1` (stereo partly drawn) [Compound 1-354, 5-[(2R)-4-[2,2-difluoro-7,7-dimethylbicyclo[2.2.1]heptane-1-carbonyl]-2-ethylpiperazin-1-yl]-2′-ethoxy-N-[(3R)-pyrrolidin-3-yl]-[2,3′-bipyridine]-6-carboxamide]: the Ki was < 10 nM.

As to `CCOc1ccccc1-c1ccc(N2CCN(C(=O)c3ccc(F)cc3C(F)F)C[C@H]2CC)c(C(=O)N[C@@H]2CCNC2)n1` [Compound 1-292, 3-[(2R)-4-[2-(difluoromethyl)-4-fluorobenzoyl]-2-ethylpiperazin-1-yl]-6-(2-ethoxyphenyl)-N-[(3R)-pyrrolidin-3-yl]pyridine-2-carboxamide], the Ki was < 10 nM.

In the case of `CCOc1ncccc1-c1ccc(N2CCN(C(=O)c3ccc(F)cc3Cl)C[C@H]2CC)c(C(=O)NCCNC)c1F` [Compound 1-96, 6-[(2R)-4-(2-chloro-4-fluorobenzoyl)-2-ethylpiperazin-1-yl]-3-(2-ethoxypyridin-3-yl)-2-fluoro-N-[2-(methylamino)ethyl]benzamide], the Ki is < 10 nM.

As for `CCOc1ccc(C(=O)N2CCN(c3ccc(-c4cccnc4OCC)nc3C(=O)NCCNC)[C@H](CC)C2)c(C(F)(F)F)n1` [Compound 1-181, 2′-ethoxy-5-[(2R)-4-[6-ethoxy-2-(trifluoromethyl)pyridine-3-carbonyl]-2-ethylpiperazin-1-yl]-N-[2-(methylamino)ethyl]-[2,3′-bipyridine]-6-carboxamide], the Ki was < 10 nM.

`CCOc1ncccc1-c1ccc(N2CCN(C(=O)c3ccc(Cl)cc3N3CC[C@@H](CN)C3)C[C@H]2CC)c(C(=O)NCCN)c1` [Compound 1-41, N-(2-aminoethyl)-2-[(2R)-4-{2-[(3S)-3-(aminomethyl)pyrrolidin-1-yl]-4-chlorobenzoyl}-2-ethylpiperazin-1-yl]-5-(2-ethoxypyridin-3-yl)benzamide]: the Ki was < 10 nM.
